Assay [1] deals with shale samples from the Antrim Shale in Michigan. Briefly: biogenic methane generation from shale samples after surfactant amendment. The following applies: after more than 100 days; headspace methane by gas chromatograph; surfactants tested at 0.05 to 0.5 g/L; 5 g shale, 15 mL formation water. Set-up: species or system microbial consortia present in shale and associated waters. The procedure:
(§1) Experiments were conducted to compare biogenic methane generation from coal samples after introducing an amendment of a surfactant. For each experiment, methane generation from coal samples from the Powder River Basin in Wyoming and shale samples from the Antrim Shale in Michigan was periodically measured over the course of more than 100 days. Each 2.5 gram coal sample or 5 g shale sample was placed in a 30 ml serum bottle with 15 mL of water that was also taken from the formation. The coal or shale and formation water were placed in the serum bottle while working in an anaerobic glove bag. The headspace in the bottle above the sample was flushed with a mixture of N2 and CO2 (95/5).
(§2) Amendments were then added to the samples. Surfactants were tested at concentrations of 0.05 to 0.5 g/L. Surfactants were tested alone and in combination with other amendments, including proteins (e.g., yeast extract), phosphate and acetate. The samples were then sealed, removed from the glove bag, and stored at a temperature close to the in situ temperature for the coal or shale samples over the course of the experiments.
(§3) The methane levels in the headspace above the samples was periodically measured and recorded. The methane was measured by running samples of the headspace gases through a gas chromatograph equipped with a thermal conductivity detector.

Assay [2] has as its system coal samples from the Powder River Basin in Wyoming. Briefly: biogenic methane generation from coal samples after surfactant amendment. Set-up: species or system microbial consortia present in coal and associated waters. The following applies: after more than 100 days; headspace methane by gas chromatograph; surfactants tested at 0.05 to 0.5 g/L; 2.5 gram coal, 15 mL formation water. The procedure: as §1, §2, §3

On to `CCCCOCCO` [2-butoxyethanol], for which the “methane production in shale containing bottles” value in assay [1] was “highest levels of methane production”. Further, in assay [2], the “methane production in coal containing bottles” value was “highest levels of methane production”.

For Benzalkonium chloride, in assay [2], the “methane production in coal containing bottles” value is on record as “highest levels of methane production”.

For `CCCCCCCC/C=C\CCCCCCCC(=O)N(C)CCS(=O)(=O)[O-].[Na+]` [Geropon T-77], the “methane production in coal containing bottles” value in assay [2] is “highest levels of methane production”.

The values are drawn from patent US20100248321A1, “SURFACTANT AMENDMENTS FOR THE STIMULATION OF BIOGENIC GAS GENERATION IN DEPOSITS OF CARBONACEOUS MATERIALS” (LUCA Technologies, Inc., priority 2009, published 2010).
